Reference: PubChem BioAssay (NCI)
Several values for one entry are separate records, joined by “and”; a condition that tells them apart may be missing. Equal values may be shown once.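 Assay format: 96-well plates, 48-hour exposure. Abbreviation: GI50, concentration required for 50% inhibition of growth. TGI denotes the concentration required for complete inhibition of growth.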

What was measured:
Assay in all cases: growth of human tumour cells (NCI), 48 h
786-0 renal = tested on: 786-0 renal
A498 renal = tested on: A498 renal
A549 NSCLC = tested on: A549 NSCLC
ACHN renal = tested on: ACHN renal
BT-549 breast = tested on: BT-549 breast
CAKI-1 renal = tested on: CAKI-1 renal
CCRF-CEM leukemia = tested on: CCRF-CEM leukemia
COLO 205 colon = tested on: COLO 205 colon
DU-145 prostate = tested on: DU-145 prostate
EKVX NSCLC = tested on: EKVX NSCLC
HCT-116 colon = tested on: HCT-116 colon
HCT-15 colon = tested on: HCT-15 colon
HL-60(TB) leukemia = tested on: HL-60(TB) leukemia
HOP-62 NSCLC = tested on: HOP-62 NSCLC
HOP-92 NSCLC = tested on: HOP-92 NSCLC
HS 578T breast = tested on: HS 578T breast
HT29 colon = tested on: HT29 colon
IGROV1 ovarian = tested on: IGROV1 ovarian
K-562 leukemia = tested on: K-562 leukemia
KM12 colon = tested on: KM12 colon
LOX IMVI melanoma = tested on: LOX IMVI melanoma
M14 melanoma = tested on: M14 melanoma
MALME-3M melanoma = tested on: MALME-3M melanoma
MCF7 breast = tested on: MCF7 breast
MDA-MB-435 = tested on: MDA-MB-435
MDA-N = tested on: MDA-N
MOLT-4 leukemia = tested on: MOLT-4 leukemia
NCI-H226 lung = tested on: NCI-H226 lung
NCI-H23 lung = tested on: NCI-H23 lung
NCI-H522 lung = tested on: NCI-H522 lung
NCI/ADR-RES ovarian = tested on: NCI/ADR-RES ovarian
OVCAR-3 ovarian = tested on: OVCAR-3 ovarian
OVCAR-5 ovarian = tested on: OVCAR-5 ovarian
OVCAR-8 ovarian = tested on: OVCAR-8 ovarian
PC-3 prostate = tested on: PC-3 prostate
RPMI-8226 leukemia = tested on: RPMI-8226 leukemia
SF-268 CNS = tested on: SF-268 CNS
SF-295 CNS = tested on: SF-295 CNS
SF-539 CNS = tested on: SF-539 CNS
SK-MEL-2 melanoma = tested on: SK-MEL-2 melanoma
SK-MEL-28 melanoma = tested on: SK-MEL-28 melanoma
SK-MEL-5 melanoma = tested on: SK-MEL-5 melanoma
SK-OV-3 ovarian = tested on: SK-OV-3 ovarian
SN12C renal = tested on: SN12C renal
SNB-19 CNS = tested on: SNB-19 CNS
SNB-75 CNS = tested on: SNB-75 CNS
SR leukemia = tested on: SR leukemia
SW-620 colon = tested on: SW-620 colon
T-47D breast = tested on: T-47D breast
UACC-62 melanoma = tested on: UACC-62 melanoma
UO-31 renal = tested on: UO-31 renal
HCC-2998 colon = tested on: HCC-2998 colon
MDA-MB-231 breast = tested on: MDA-MB-231 breast
NCI-H460 lung = tested on: NCI-H460 lung
OVCAR-4 ovarian = tested on: OVCAR-4 ovarian
RXF 393 renal = tested on: RXF 393 renal
TK-10 renal = tested on: TK-10 renal
U251 CNS = tested on: U251 CNS
UACC-257 melanoma = tested on: UACC-257 melanoma

SMILES: COc1cc(S(=O)(=O)Nc2ccc(-c3csc(N4C(=O)C(C)SC4c4ccccc4O)n3)cc2)ccc1Cl (stereo unspecified)
- TGI (786-0 renal): > 100 µM
- TGI (A498 renal): > 100 µM
- TGI (A549 NSCLC): > 100 µM
- TGI (ACHN renal): > 100 µM
- TGI (BT-549 breast): > 100 µM
- TGI (CAKI-1 renal): > 100 µM
- TGI (CCRF-CEM leukemia): > 100 µM
- TGI (COLO 205 colon): 57 µM
- TGI (DU-145 prostate): > 100 µM
- TGI (EKVX NSCLC): > 100 µM
- TGI (HCT-116 colon): > 100 µM
- TGI (HCT-15 colon): > 100 µM
- TGI (HL-60(TB) leukemia): 56.4 µM
- TGI (HOP-62 NSCLC): > 100 µM
- TGI (HOP-92 NSCLC): > 100 µM
- TGI (HS 578T breast): 90.4 µM
- TGI (HT29 colon): > 100 µM
- TGI (IGROV1 ovarian): > 100 µM
- TGI (K-562 leukemia): > 100 µM
- TGI (KM12 colon): > 100 µM
- TGI (LOX IMVI melanoma): > 100 µM
- TGI (M14 melanoma): > 100 µM
- TGI (MALME-3M melanoma): 35.5 µM
- TGI (MCF7 breast): > 100 µM
- TGI (MDA-MB-435): > 100 µM
- TGI (MDA-N): > 100 µM
- TGI (MOLT-4 leukemia): > 100 µM
- TGI (NCI-H226 lung): > 100 µM
- TGI (NCI-H23 lung): > 100 µM
- TGI (NCI-H522 lung): 37 µM
- TGI (NCI/ADR-RES ovarian): > 100 µM
- TGI (OVCAR-3 ovarian): > 100 µM
- TGI (OVCAR-5 ovarian): > 100 µM
- TGI (OVCAR-8 ovarian): > 100 µM
- TGI (PC-3 prostate): > 100 µM
- TGI (RPMI-8226 leukemia): > 100 µM
- TGI (SF-268 CNS): 49.9 µM
- TGI (SF-295 CNS): > 100 µM
- TGI (SF-539 CNS): > 100 µM
- TGI (SK-MEL-2 melanoma): 91.7 µM
- TGI (SK-MEL-28 melanoma): 55.6 µM
- TGI (SK-MEL-5 melanoma): > 100 µM
- TGI (SK-OV-3 ovarian): > 100 µM
- TGI (SN12C renal): > 100 µM
- TGI (SNB-19 CNS): > 100 µM
- TGI (SNB-75 CNS): 95.7 µM
- TGI (SR leukemia): > 100 µM
- TGI (SW-620 colon): > 100 µM
- TGI (T-47D breast): 31 µM
- TGI (UACC-62 melanoma): > 100 µM
- TGI (UO-31 renal): > 100 µM

SMILES: C/C1=C\CC[C@@]2(C)O[C@@H]2C[C@@H]2[C@H](C/C(C)=C/CC1)OC(=O)C21CCN=N1 (stereo partly specified)
- GI50 (786-0 renal): > 100 µM
- TGI (786-0 renal): > 100 µM
- TGI (A498 renal): > 100 µM
- GI50 (A549 NSCLC): > 100 µM
- TGI (A549 NSCLC): 75 µM and > 100 µM
- GI50 (ACHN renal): > 100 µM
- TGI (ACHN renal): 75 µM and > 100 µM
- GI50 (BT-549 breast): > 100 µM
- TGI (BT-549 breast): > 100 µM
- GI50 (CAKI-1 renal): > 100 µM
- TGI (CAKI-1 renal): > 100 µM
- GI50 (CCRF-CEM leukemia): 44.9 µM
- TGI (CCRF-CEM leukemia): 75 µM and > 100 µM
- GI50 (COLO 205 colon): > 100 µM
- TGI (COLO 205 colon): > 100 µM
- GI50 (DU-145 prostate): > 100 µM
- TGI (DU-145 prostate): > 100 µM
- GI50 (EKVX NSCLC): > 100 µM
- TGI (EKVX NSCLC): > 100 µM
- TGI (HCC-2998 colon): > 75 µM
- GI50 (HCT-116 colon): > 100 µM
- TGI (HCT-116 colon): > 100 µM
- GI50 (HCT-15 colon): > 100 µM
- TGI (HCT-15 colon): > 100 µM
- TGI (HL-60(TB) leukemia): > 100 µM
- GI50 (HOP-62 NSCLC): > 100 µM
- TGI (HOP-62 NSCLC): 75 µM and > 100 µM
- TGI (HOP-92 NSCLC): > 75 µM
- GI50 (HS 578T breast): > 100 µM
- TGI (HS 578T breast): 75 µM and > 100 µM
- GI50 (HT29 colon): > 100 µM
- TGI (HT29 colon): > 100 µM
- GI50 (IGROV1 ovarian): > 100 µM
- TGI (IGROV1 ovarian): > 100 µM
- GI50 (K-562 leukemia): 71.2 µM
- TGI (K-562 leukemia): 42.7 µM and > 100 µM
- GI50 (KM12 colon): > 100 µM
- TGI (KM12 colon): > 100 µM
- TGI (LOX IMVI melanoma): 75 µM
- GI50 (M14 melanoma): > 100 µM
- TGI (M14 melanoma): > 100 µM
- TGI (MALME-3M melanoma): > 75 µM
- GI50 (MCF7 breast): > 100 µM
- TGI (MCF7 breast): > 100 µM
- GI50 (MDA-MB-231 breast): > 100 µM
- TGI (MDA-MB-231 breast): > 100 µM
- GI50 (MDA-MB-435): > 100 µM
- TGI (MDA-MB-435): > 100 µM
- GI50 (MDA-N): > 100 µM
- TGI (MDA-N): > 100 µM
- GI50 (MOLT-4 leukemia): > 100 µM
- TGI (MOLT-4 leukemia): 75 µM and > 100 µM
- TGI (NCI-H226 lung): > 100 µM
- GI50 (NCI-H23 lung): > 100 µM
- TGI (NCI-H23 lung): > 100 µM
- GI50 (NCI-H460 lung): > 100 µM
- TGI (NCI-H460 lung): 75 µM and > 100 µM
- TGI (NCI-H522 lung): 75 µM
- GI50 (NCI/ADR-RES ovarian): > 100 µM
- TGI (NCI/ADR-RES ovarian): > 100 µM
- GI50 (OVCAR-3 ovarian): > 100 µM
- TGI (OVCAR-3 ovarian): > 100 µM
- TGI (OVCAR-4 ovarian): 75 µM
- GI50 (OVCAR-5 ovarian): > 100 µM
- TGI (OVCAR-5 ovarian): > 100 µM
- GI50 (OVCAR-8 ovarian): > 100 µM
- TGI (OVCAR-8 ovarian): > 100 µM
- GI50 (PC-3 prostate): > 100 µM
- TGI (PC-3 prostate): > 100 µM
- GI50 (RPMI-8226 leukemia): > 100 µM
- TGI (RPMI-8226 leukemia): 75 µM and > 100 µM
- GI50 (RXF 393 renal): > 100 µM
- TGI (RXF 393 renal): > 100 µM
- GI50 (SF-268 CNS): > 100 µM
- TGI (SF-268 CNS): > 100 µM
- GI50 (SF-295 CNS): > 100 µM
- TGI (SF-295 CNS): 75 µM and > 100 µM
- GI50 (SF-539 CNS): > 100 µM
- TGI (SF-539 CNS): > 100 µM
- GI50 (SK-MEL-2 melanoma): > 100 µM
- TGI (SK-MEL-2 melanoma): > 100 µM
- GI50 (SK-MEL-28 melanoma): > 100 µM
- TGI (SK-MEL-28 melanoma): > 100 µM
- GI50 (SK-MEL-5 melanoma): > 100 µM
- TGI (SK-MEL-5 melanoma): 75 µM and > 100 µM
- TGI (SK-OV-3 ovarian): > 75 µM
- GI50 (SN12C renal): > 100 µM
- TGI (SN12C renal): 75 µM and > 100 µM
- GI50 (SNB-19 CNS): > 100 µM
- TGI (SNB-19 CNS): > 100 µM
- GI50 (SNB-75 CNS): > 100 µM
- TGI (SNB-75 CNS): 75 µM and > 100 µM
- GI50 (SW-620 colon): > 100 µM
- TGI (SW-620 colon): > 100 µM
- TGI (T-47D breast): > 100 µM
- GI50 (TK-10 renal): > 100 µM
- TGI (TK-10 renal): > 100 µM
- GI50 (U251 CNS): > 100 µM
- TGI (U251 CNS): > 100 µM
- GI50 (UACC-257 melanoma): > 100 µM
- TGI (UACC-257 melanoma): > 100 µM
- GI50 (UACC-62 melanoma): > 100 µM
- TGI (UACC-62 melanoma): > 100 µM
- GI50 (UO-31 renal): > 100 µM
- TGI (UO-31 renal): > 100 µM
